The values below come from patent publication US20260200903A1, “PHARMACEUTICAL COMPOSITION FOR AMELIORATING MALIGNANT DISEASES” (KINKI UNIVERSITY, priority 2020, published 2026).

Holding throughout (format): cell-based
The subject of assay [1] is Rec-1 cells (mantle cell lymphoma cell line). Description: Cell death inducing effect on Rec-1 cells, trypan blue staining. The conditions noted are these: Rec-1 (mantle cell lymphoma), cell viability. Here is the method: Rec-1 cells (mantle cell lymphoma cell line) were cultured under 5% CO2 at 37° C. The culture medium used RPMI-1640 medium with 100 μg/mL penicillin, 100 U/mL streptomycin and fetal bovine serum. Rec-1 cells were seeded into 96-well plates and incubated with each concentration of the compounds was added, and cell viability was determined by the trypan blue staining.
(§1) For controls, only 0.5% DMSO (diluted in PBS) used to dissolve the compounds was added. For each concentration, each bar line is indicated by an arrow with the sign “n, a, 1, 2, 3, 4, 5, 6, 7, 8, 9, 10, 11, 12” from left to right. The “1, 3, 5, 7, 9, 11” are omitted from the graph, but the sign “1” shall be indicated by an arrow between the signs “a” and “2”, the sign “3” between the signs “2” and “4”, and other odd numbers shall likewise be indicated by arrows between even numbers before and after.
(§2) The sign “n” is the norathyriol (formula (n)) administration group, the sign “a” is the mangiferin 8a (formula (a)) administration group, the sign “1” is the yk-7 (formula (1)) administration group, the sign “2” is the yk-8-1 (formula (2)) administration group, the sign “3” is the yk-8-3 (formula (3)) administration group, the sign “4” is the M7 (formula (4)) administration group, the sign “5” is the M9 (formula (5)) administration group, the sign “6” is the M11 (formula (6)) administration group, the sign “7” is the M12 (formula (7)) administration group, the sign “8” is the M14 (formula (8)) administration group, the sign “9” is the M15 (formula (9)) administration group, the sign “10” is the M16 (formula (10)) administration group, the sign “11” is the M18 (formula (11)) administration group, the sign “12” is the M19 (formula (12)) administration group, respectively. The IC50 values for each compound is also listed in the upper right corner of the figure.

Assay [2] has as its system RR1 cells (rituximab-resistant burkitt lymphoma cell line). Description: Cell death inducing effect on RR1 cells, trypan blue staining. To be noted: RR1 (Burkkit lymphoma; rituximab resistance), cell viability. Here is the method:
Raji cells, a burkitt lymphoma cell line, were modified to be rituximab-resistant and named RR1 cells.
RR1 cells (rituximab-resistant burkitt lymphoma cell line) were cultured under 5% CO2 at 37° C. The culture medium used RPMI-1640 medium with 100 μg/mL penicillin, 100 U/mL streptomycin and fetal bovine serum. RR-1 cells were seeded into 96-well plates and incubated with each concentration of the compounds was added, and cell viability was determined by the trypan blue staining.
as §1, §2

Another assay has as its target T1, phospho-NIK (Homo sapiens, UniProt Q99558).
T1 construct: Proteins were extracted from these cell suspensions with cell lysate and used as samples; endogenous in cells; host or cells: KMS-28BM (myeloma)
Description: Immunoblotting of phospho-NIK in KMS-28BM cells. The conditions noted are these: 72 h, vs control, 1 μM mangiferin 8a/M8, 1 μM norathyriol, 0.5 μM M7, 0.2 μM M9, 5 μM yk-7, 0.5 μM yk-8-3, 100 μM yk-8-1, 0.5 μM M19, M18, M11, 0.005 μM M16, M15, M14, 0.05 μM M12. On the procedure: (§3) Immunoblotting was performed on KMS-28BM cells to investigate the inhibitory effect of each compound administration on NIK inhibition and the activation of IKK, NF-κB p52, and NF-κB p65, which are downstream signals of NIK. As a result, inhibition of NIK activation, inhibition of IKK activity, and inhibition of nuclear translocation of NF-κB p52 and NF-κB p65 were observed (FIG. 15 and FIG. 16).
(§4) As a control, compounds untreated KMS-28BM cells were seeded in 150 cm^2 flasks and incubated for 72 h at 37° C. and 5% CO2. KMS-28BM cells were seeded into 150 cm^2 flasks and pre-cultured for 24 h. After incubation, KMS-28BM cells were treated with […], 1 μM norathyriol, 0.5 μM M7 (formula (4)), 1 μM M8 (mangiferin 8a: listed in duplicate), 0.2 μM M9 (formula (5)), 5 μM yk-7 (formula (1)), 0.5 μM yk-8-3 (formula (3)) and 100 μM yk-8-1 (formula (2)) at final concentrations, and incubated for 72 h at 37° C. and 5% CO2. In addition, KMS-28BM cells were also treated with 0.5 μM M19 (formula (12)), 0.5 μM M18 (formula (11)), 0.005 μM M16 (formula (10)), […] (formula (9)), 0.005 μM M14 (formula (8)), 0.05 μM M12 (formula (7)) and […] (formula (6)) at the final concentrations, and incubated for 72 h at 37° C. and 5% CO2. Proteins were extracted from these cell suspensions with cell lysate and used as samples.
(§5) The nucleus and cytoplasmic substrate were separated from the cells using the ProteoExtract (registered trademark) Subcellular Proteome Extraction Kit from Merck Ltd. to extract the cytoplasmic and nuclear fractions.
(§6) After SDS-PAGE, each sample was transferred to a PVDF membrane and examined using anti-phospho-NIK, anti-NIK, anti-phospho-IKK, anti-IKK, anti-P-actin, anti-NF-κB p52 and anti-NF-κB p65 antibody, and anti-Lamin antibody.
(§7) The antibody species is indicated in the vertical direction. Specifically, for anti-phospho-NIK antibody, “Phospho-NIK” was used, for anti-NIK antibody, “NIK” was used, for anti-phospho-IKK antibody, “Phospho-IKK” was used, for anti-IKK antibody, “IKK” was used, for anti-p-actin antibody, “p-actin” was used, for anti-NF-κB p52 antibody, “NF-κB p52 nuclear” was used, for anti-NF-κB p65 antibody, “NF-κB p65 nuclear” was used, and for anti-Lamin antibody, “Lamin” was used.
Background: Immunoblotting shows a protein as a band on a membrane.

A further assay deals with phospho-IKK. Description: Immunoblotting of phospho-IKK in KMS-28BM cells. The conditions noted are these: 72 h, vs control, same concentrations as for phospho-NIK (0.005-100 μM). On the procedure:
as §3, §4, §5, §6, §7

For a further assay, the system named is CD138. Description: CD138 expression in L363 cells, flow cytometry. The conditions noted are these: 10 days, concentration lower than the IC50 (0.005-50 μM), compared to the positive control. On the procedure:
As a control, compounds untreated L363 cells were seeded in 75 cm^2 flasks and incubated for 10 days at 37° C. and 5% CO2. L363 cells were seeded into 75 cm^2 flasks and pre-cultured for 4 h. After incubation, L363 cells were treated with 0.1 μM M7, 0.05 μM M9, 0.1 μM yk-7, 0.1 μM yk-8-3, 50 μM yk-8-1, 0.1 μM M11, 0.01 μM M12, 0.005 μM M14, 0.005 μM M15, 0.005 μM M16, 1 μM M18, and 1 μM M19 at final concentrations, and incubated for 10 days at 37° C. and 5% CO2. This added amount is a concentration lower than the IC50 of the above compounds for L363 cells. After 10 days of incubation, cells were stained with anti-CD138 antibody, a marker of multiple myeloma grade, and CD138 expression was measured using BD LSRFortessa.
Results are shown in FIG. 25, FIG. 26, FIG. 27 and FIG. 28. The horizontal axis represents the expression level of CD138 and the vertical axis represents the number of cells.
A general note: A flow cytometer gives signals particle by particle.

T1 sequence (Q99558 whole entry): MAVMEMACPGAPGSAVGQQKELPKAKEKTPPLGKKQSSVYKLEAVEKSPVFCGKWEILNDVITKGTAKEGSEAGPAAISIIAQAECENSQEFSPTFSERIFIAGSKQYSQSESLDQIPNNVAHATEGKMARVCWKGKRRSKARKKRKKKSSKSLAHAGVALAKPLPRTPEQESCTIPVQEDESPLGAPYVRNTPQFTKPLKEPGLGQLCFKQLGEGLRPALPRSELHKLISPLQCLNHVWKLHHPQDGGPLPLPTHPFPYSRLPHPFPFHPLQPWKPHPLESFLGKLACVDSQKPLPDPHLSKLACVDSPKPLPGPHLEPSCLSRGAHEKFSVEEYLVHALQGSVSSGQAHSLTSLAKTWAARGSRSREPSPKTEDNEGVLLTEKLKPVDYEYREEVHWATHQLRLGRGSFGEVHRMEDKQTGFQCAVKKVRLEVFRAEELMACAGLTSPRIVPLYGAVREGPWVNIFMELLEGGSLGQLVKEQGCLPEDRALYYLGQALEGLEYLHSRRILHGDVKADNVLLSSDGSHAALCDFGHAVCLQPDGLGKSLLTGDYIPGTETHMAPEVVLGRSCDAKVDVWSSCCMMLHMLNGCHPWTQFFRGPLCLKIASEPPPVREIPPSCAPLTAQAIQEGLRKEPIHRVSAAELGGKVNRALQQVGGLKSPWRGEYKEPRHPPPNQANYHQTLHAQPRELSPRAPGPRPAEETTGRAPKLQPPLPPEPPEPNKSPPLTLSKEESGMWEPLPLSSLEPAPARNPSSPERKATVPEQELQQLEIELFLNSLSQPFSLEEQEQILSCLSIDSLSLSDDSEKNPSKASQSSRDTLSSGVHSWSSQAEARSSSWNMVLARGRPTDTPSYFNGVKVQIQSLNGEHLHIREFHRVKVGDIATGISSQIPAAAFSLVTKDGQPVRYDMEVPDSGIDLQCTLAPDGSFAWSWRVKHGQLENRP

Turning to “1,2′,3′,4′,6-penta-O-propionylmangiferin [Compound 8a, reference compound]”, the figures for the IC50 in assay [1] and in assay [2] were 22500 nM and 328 nM, respectively. In addition, the “phospho-NIK band density (anti-phospho-NIK antibody)” value (from here on “phospho-NIK band density”) at phospho-NIK was “decrease in band density”. Further, the “phospho-IKK band density (anti-phospho-IKK antibody)” value (from here on “phospho-IKK band density”) in the assay on phospho-IKK was “decrease in band density”.
Take `CCC(=O)OC[C@H]1O[C@@H](c2c(OC(=O)CC)cc3oc4cc(OC(=O)CC)c(OC(=O)CC)cc4c(=O)c3c2OC(=O)CC)[C@H](OC(=O)CC)[C@@H](OC(=O)CC)[C@@H]1OC(=O)CC` [Compound M7, 1,3,2′,3′,4′,6,6′,7-octa-O-propionylmangiferin]: the IC50 in assay [1] (Homo sapiens, Rec1) came out at 2250 nM; in assay [2], 99 nM. For the same compound, the “phospho-NIK band density” value at phospho-NIK is “decrease in band density”. The “phospho-IKK band density” value in the assay with phospho-IKK is on record as “decrease in band density”. Besides, in the assay with CD138, the CD138 expression levels result is recorded as “markedly reduced”.
In the case of `CCC(=O)OC[C@H]1O[C@@H](c2c(O)cc3oc4cc(O)c(O)cc4c(=O)c3c2O)[C@H](OC(=O)CC)[C@@H](OC(=O)CC)[C@@H]1OC(=O)CC` [Compound M9, 2′,3′,4′,6′-tetra-O-propionylmangiferin], the IC50 in assay [1] (Homo sapiens, Rec1) is 816 nM; in assay [2], 7 nM. The “phospho-NIK band density” value at phospho-NIK is on record as “decrease in band density”. Moreover, the “phospho-IKK band density” value in the assay on phospho-IKK was “decrease in band density”. Also, the CD138 expression levels entry with CD138 was “markedly reduced”.
Consider `CCCC(=O)OC[C@H]1O[C@@H](c2c(OC(=O)CCC)cc3oc4cc(OC(=O)CCC)c(OC(=O)CCC)cc4c(=O)c3c2OC(=O)CCC)[C@H](OC(=O)CCC)[C@@H](OC(=O)CCC)[C@@H]1OC(=O)CCC` [Compound M11, 1,3,2′,3′,4′,6,6′,7-octa-O-butyrylmangiferin], for which the IC50 in assay [1] worked out at 926 nM; in assay [2], 828 nM. Besides, at phospho-NIK, the “phospho-NIK band density” value was “decrease in band density”. Besides, the “phospho-IKK band density” value in the assay with phospho-IKK is “decrease in band density”. Besides, the CD138 expression levels result in the assay on CD138 is “markedly reduced”.
For `CCCC(=O)OC[C@H]1O[C@@H](c2c(O)cc3oc4cc(O)c(O)cc4c(=O)c3c2OC(=O)CCC)[C@H](OC(=O)CCC)[C@@H](OC(=O)CCC)[C@@H]1OC(=O)CCC` [Compound M12, 1,2′,3′,4′,6-penta-O-butyrylmangiferin], the IC50 is 951 nM in assay [1] (Homo sapiens, Rec1) and 15 nM in assay [2]. Also, the “phospho-NIK band density” value at phospho-NIK was “decrease in band density”. Further, the “phospho-IKK band density” value in the assay with phospho-IKK was “decrease in band density”. Further, in the assay with CD138, the CD138 expression levels result is “markedly reduced”.
Consider `CCCC(=O)OC[C@H]1O[C@@H](c2c(O)cc3oc4cc(O)c(O)cc4c(=O)c3c2O)[C@H](OC(=O)CCC)[C@@H](OC(=O)CCC)[C@@H]1OC(=O)CCC` [Compound M14, 2′,3′,4′,6′-tetra-O-butyrylmangiferin], for which the IC50 in assay [1] (Homo sapiens, Rec1) was 24 nM; in assay [2], 8 nM. At phospho-NIK, the “phospho-NIK band density” value is “decrease in band density”. The “phospho-IKK band density” value in the assay on phospho-IKK was “decrease in band density”. In the assay with CD138, the CD138 expression levels result is listed as “markedly reduced”.
Take `CC(C)(C)C(=O)OC[C@H]1O[C@@H](c2c(O)cc3oc4cc(O)c(O)cc4c(=O)c3c2O)[C@H](OC(=O)C(C)(C)C)[C@@H](OC(=O)C(C)(C)C)[C@@H]1OC(=O)C(C)(C)C` [Compound M15, 2′,3′,4′,6′-tetra-O-pivaloylmangiferin]: the IC50 in assay [1] (Homo sapiens, Rec1) turned out to be 32 nM; in assay [2], 11 nM. The “phospho-NIK band density” value on phospho-NIK is “decrease in band density”. Further, the “phospho-IKK band density” value with phospho-IKK is “decrease in band density”. The CD138 expression levels result with CD138 is recorded as “markedly reduced”.
Turning to `CCCCO[C@@H]1[C@@H](OCCCC)[C@H](c2c(O)cc3oc4cc(O)c(O)cc4c(=O)c3c2O)O[C@H](COC(=O)CCC)[C@H]1OC(=O)CCC` [Compound M16, 2′,3′-di-O-butyl-4′,6′-di-O-butyrylmangiferin], the IC50 in assay [1] (Homo sapiens, Rec1) is 20 nM; in assay [2], 7 nM. Besides, at phospho-NIK, the “phospho-NIK band density” value is listed as “decrease in band density”. The “phospho-IKK band density” value with phospho-IKK is reported as “decrease in band density”. In addition, the CD138 expression levels entry in the assay with CD138 is “markedly reduced”.
For `O=c1c2cc(O)c(O)cc2oc2cc(O)cc(OCCO)c12` [Compound M18, 3,6,7-trihydroxy-1-(2-hydroxyethoxy)-9H-xanthen-9-one], the IC50 in assay [1] (Homo sapiens, Rec1) stood at 9120 nM; in assay [2] it was 651 nM. Besides, the “phospho-NIK band density” value on phospho-NIK is “decrease in band density”. Also, the “phospho-IKK band density” value with phospho-IKK is “decrease in band density”. The CD138 expression levels entry with CD138 is “markedly reduced”.
Consider `O=c1c2cc(O)c(O)cc2oc2cc(O)cc(O)c12` [norathyriol, reference compound], for which the 50% inhibitory concentration (IC50) in assay [1] (Homo sapiens, Rec1) is 15800 nM; in assay [2], 737 nM. In addition, the “phospho-NIK band density” value at phospho-NIK is “decrease in band density”. Moreover, in the assay on phospho-IKK, the “phospho-IKK band density” value is “decrease in band density”.

For orientation: IC50 means the point on the concentration scale where inhibition reaches its midpoint. Low values mean greater potency in that assay, high ones weaker potency in that assay.
